pIC50: −log10 of the molar value. Where two headings read alike, the source gives them in different places.
Test system: H460
Assay: cells
Type: cell-based
Settings: for pIC50: Homo sapiens
[1] = NCI-H460, read-out: 2 h Air H460 monolayer IC50
[2] = NCI-H460, read-out: 2 h N2 H460 monolayer IC50
[3] = NCI-H460, 2 h, read-out: 2 hr Air H460 IC50
[4] = NCI-H460, 2 h, read-out: 2 hr N2 H460 IC50

| Compound | pIC50 [1] | pIC50 [2] | H460 HCR: Air/N2 | pIC50 [3] | pIC50 [4] |
| --- | --- | --- | --- | --- | --- |
| Cc1cc(OS(=O)(=O)Cc2ccsc2[N+](=O)[O-])ccc1N(CCCl)CCCl [TH-1103] | 6.15 | 7.00 | – | – | – |
| Cn1c(CS(=O)(=O)Nc2ccc(N(CCCl)CCCl)cc2)cnc1[N+](=O)[O-] [TH-1104] | 5.13 | 5.21 | – | – | – |
| O=[N+]([O-])c1nccn1CS(=O)(=O)Nc1ccc(N(CCCl)CCCl)cc1 [TH-1105] | 5.12 | 5.38 | – | – | – |
| Cc1cc(OS(=O)(=O)Cn2ccnc2[N+](=O)[O-])ccc1N(CCCl)CCCl [TH-1106] | 6.05 | 6.70 | – | – | – |
| CN(c1ccc(N(CCCl)CCCl)cc1)S(=O)(=O)Cc1cnc([N+](=O)[O-])n1C [TH-1108] | 4.82 | 4.96 | – | – | – |
| Cc1cc(OS(=O)(=O)Cc2ncc([N+](=O)[O-])n2C)ccc1N(CCCl)CCCl [TH-1110] | 5.85 | 5.68 | – | – | – |
| Cc1cc(OS(=O)(=O)Cc2ncn(C)c2[N+](=O)[O-])ccc1N(CCCl)CCCl [TH-1111] | 5.33 | 5.60 | – | – | – |
| Cc1cc(OS(=O)(=O)Cc2nc(C)n(C)c2[N+](=O)[O-])ccc1N(CCCl)CCCl [TH-1112] | 5.85 | 5.77 | – | – | – |
| Cc1cc(OS(=O)(=O)C(C)(C)c2ccc([N+](=O)[O-])cc2)ccc1N(CCCl)CCCl [TH-1115] | 4.89 | 5.52 | – | – | – |
| Cc1cc(OS(=O)(=O)C(C)(C)c2ccc([N+](=O)[O-])cc2)ccc1N(CCBr)CCBr [TH-1116] | 5.96 | 6.22 | – | – | – |
| Cc1cc(OS(=O)(=O)Cc2ccoc2[N+](=O)[O-])ccc1N(CCCl)CCCl [TH-1117] | 5.64 | 5.96 | – | – | – |
| CN(c1ccc(N(CCCl)CCCl)cc1)S(=O)(=O)Cc1ccsc1[N+](=O)[O-] [TH-1118] | 4.89 | 5.17 | – | – | – |
| Cn1c(CN(c2ccc(N(CCCl)CCCl)cc2)S(=O)(=O)CCl)cnc1[N+](=O)[O-] [TH-1119] | < 3.52 | < 3.52 | – | – | – |
| Cc1cc(OS(=O)(=O)C(C)(C)c2ccsc2[N+](=O)[O-])ccc1N(CCCl)CCCl [TH-1121] | 5.89 | 6.52 | – | – | – |
| CC(c1ccc([N+](=O)[O-])cc1)S(=O)(=O)N(C)c1ccc(N(CCCl)CCCl)cc1 (centres unmarked) [TH-1122] | < 3.52 | < 3.52 | – | – | – |
| CN(c1ccc(N(CCCl)CCCl)cc1)S(=O)(=O)Cc1ccc([N+](=O)[O-])cc1 [TH-1123] | < 3.52 | < 3.52 | – | – | – |
| CN(c1ccc(N(CCCl)CCCl)cc1)S(=O)(=O)C(C)(C)c1ccc([N+](=O)[O-])cc1 [TH-1124] | 3.54 | 3.61 | – | – | – |
| Cc1cc(CS(=O)(=O)N(C)c2ccc(N(CCCl)CCCl)cc2)c([N+](=O)[O-])s1 [TH-1125] | 3.83 | 4.16 | – | – | – |
| Cn1c(CN(c2ccc(N(CCCl)CCCl)cc2)S(=O)(=O)C(F)(F)F)cnc1[N+](=O)[O-] [TH-1128] | 3.57 | 3.53 | – | – | – |
| CN(c1ccc(N(CCCl)CCCl)cc1)S(=O)(=O)Cc1nc(-c2ccccc2)c([N+](=O)[O-])n1C [TH-1129] | 5.16 | 5.44 | – | – | – |
| CN(c1ccc(N(CCCl)CCCl)cc1)S(=O)(=O)C(C)(C)c1nc(-c2ccccc2)c([N+](=O)[O-])n1C [TH-1130] | 3.91 | 4.19 | – | – | – |
| Cc1cc(CS(=O)(=O)Oc2ccc(N(CCCl)CCCl)c(C)c2)c([N+](=O)[O-])s1 [TH-1131] | 6.00 | 6.52 | – | – | – |

| Compound | pIC50 [1] | pIC50 [2] | H460 HCR: Air/N2 | pIC50 [3] | pIC50 [4] |
| --- | --- | --- | --- | --- | --- |
| Cc1cc(C(C)(C)S(=O)(=O)Oc2ccc(N(CCCl)CCCl)c(C)c2)c([N+](=O)[O-])s1 [TH-1132] | 5.70 | 6.52 | – | – | – |
| O=[N+]([O-])c1nccn1CS(=O)(=O)Nc1cc(F)c(N(CCCl)CCCl)c(F)c1 [TH-1133] | 4.95 | 5.23 | – | – | – |
| Cc1cc(OS(=O)(=O)C(C)(C)n2ccnc2[N+](=O)[O-])ccc1N(CCCl)CCCl [TH-1134] | 6.70 | > 7.00 | – | – | – |
| CN(c1cc(F)c(N(CCCl)CCCl)c(F)c1)S(=O)(=O)Cn1ccnc1[N+](=O)[O-] [TH-1135] | 5.04 | 5.47 | – | – | – |
| CN(c1cc(F)c(N(CCCl)CCCl)c(F)c1)S(=O)(=O)C(C)(C)n1ccnc1[N+](=O)[O-] [TH-1136] | 5.29 | 5.30 | – | – | – |
| Cn1c(CS(=O)(=O)Nc2cc(F)c(N(CCCl)CCCl)c(F)c2)cnc1[N+](=O)[O-] [TH-1137] | 4.69 | 5.08 | – | – | – |
| CN(c1cc(F)c(N(CCCl)CCCl)c(F)c1)S(=O)(=O)Cc1cnc([N+](=O)[O-])n1C [TH-1138] | 4.47 | 4.87 | – | – | – |
| O=[N+]([O-])c1sccc1C(Cc1ccc2c(ccn2CCO)c1)S(=O)(=O)Oc1ccc(N(CCCl)CCCl)cc1 (centres unmarked) [TH-1140] | – | – | 114 | 3.94 | 6.00 |
| CN(c1ccc(N(CCBr)CCBr)cc1)S(=O)(=O)Cn1ccnc1[N+](=O)[O-] [TH-1141] | 6.30 | 7.00 | – | – | – |
| CCc1nc([N+](=O)[O-])n(C)c1CS(=O)(=O)N(C)c1ccc(N(CCCl)CCCl)cc1 [TH-1145] | 4.11 | 5.42 | – | – | – |
| O=[N+]([O-])c1sccc1C(Cc1ccc(NS(=O)(=O)C(F)(F)F)nc1)S(=O)(=O)Oc1ccc(N(CCCl)CCCl)cc1 (centres unmarked) [TH-1262] | – | – | 150 | 4.05 | 6.22 |
| CS(=O)(=O)Nc1ccc(CC(c2ccsc2[N+](=O)[O-])S(=O)(=O)Oc2ccc(N(CCCl)CCCl)cc2)cn1 (centres unmarked) [TH-1272] | – | – | 91 | 3.54 | 5.49 |
| Cc1ccc(S(=O)(=O)NCC(c2ccsc2[N+](=O)[O-])S(=O)(=O)Oc2ccc(N(CCCl)CCCl)cc2)cc1 (centres unmarked) [TH-1312] | – | – | 31 | 3.91 | 5.41 |
| O=[N+]([O-])c1sccc1C(Cc1ccc(Cl)nc1)S(=O)(=O)Oc1ccc(N(CCCl)CCCl)cc1 (centres unmarked) [TH-1341] | – | – | 43 | 3.84 | 5.47 |
| CC(C)(C)OC(=O)NCC(=O)Nc1ccc(CC(c2ccsc2[N+](=O)[O-])S(=O)(=O)Oc2ccc(N(CCCl)CCCl)cc2)cn1 (centres unmarked) [TH-1351] | – | – | 49 | ~3.52 | 5.21 |
| O=[N+]([O-])c1sccc1C(Cc1ccc(N2CCC[C@H]2CO)nc1)S(=O)(=O)Oc1ccc(N(CCCl)CCCl)cc1 (some centres unmarked) [TH-1430] | – | – | 500 | 3.52 | 6.22 |
| CN(CCO)c1ccc(CC(c2ccsc2[N+](=O)[O-])S(=O)(=O)Oc2ccc(N(CCCl)CCCl)cc2)cn1 (centres unmarked) [TH-1434] | – | – | 83 | 4.30 | 6.22 |
| O=[N+]([O-])c1sccc1C(Cc1ccc(O[C@@H]2CCC[C@H]2O)nc1)S(=O)(=O)Oc1ccc(N(CCCl)CCCl)cc1 (some centres unmarked) [TH-1452] | – | – | 55 | 3.96 | 5.70 |
| O=[N+]([O-])c1sccc1C(Cc1ccc2nn(CCO)nc2c1)S(=O)(=O)Oc1ccc(N(CCCl)CCCl)cc1 (centres unmarked) [TH-1458] | – | – | 60 | 4.52 | 6.30 |
| C[C@H](O)C(=O)Nc1ccc(CC(c2ccsc2[N+](=O)[O-])S(=O)(=O)Oc2ccc(N(CCCl)CCCl)cc2)cc1 (some centres unmarked) [TH-1468] | – | – | 75 | 4.52 | 6.40 |
| COCC(=O)Nc1ccc(CC(c2ccsc2[N+](=O)[O-])S(=O)(=O)Oc2ccc(N(CCCl)CCCl)cc2)cn1 (centres unmarked) [TH-1477] | – | – | 43 | 4.89 | 6.52 |
